Like-named read-outs stand apart in the source and are kept apart here.
Molecular target: T1, SFRP-1 (Homo sapiens, UniProt Q8N474)
T1 sequence (Q8N474 32-314): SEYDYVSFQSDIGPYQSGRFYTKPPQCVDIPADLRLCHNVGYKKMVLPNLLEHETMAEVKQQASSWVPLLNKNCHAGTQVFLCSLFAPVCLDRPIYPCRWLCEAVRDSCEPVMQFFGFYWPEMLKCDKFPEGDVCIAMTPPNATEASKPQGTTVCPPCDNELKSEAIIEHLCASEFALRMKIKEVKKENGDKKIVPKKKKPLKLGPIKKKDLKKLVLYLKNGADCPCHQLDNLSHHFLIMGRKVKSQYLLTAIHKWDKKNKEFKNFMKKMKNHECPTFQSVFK
Assay: Cell-based assay for in vitro measurement of SFRP-1/SARP2 antagonist activity (U2OS cells co-transfected with 16x TCF-tk-Luciferase reporter, Wnt and hSFRP-1);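 note: U2OS cells co-transfected with a TCF-tk luciferase reporter, a Wnt vector, hSFRP-1 or empty vector and CMV-βgal, luciferase luminescence read in cell lysates alongside βgal activity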
Settings: for fold induction at 15 µM / fold induction at 20 µM: U2OS

[1] = read-out: Fold Induction with SFRP-1, Conc 15 μM, with SFRP-1, fold induction over SFRP-1 control, single dose
[2] = read-out: Fold Induction without SFRP-1, Conc 15 μM, without SFRP-1, single dose
[3] = read-out: Fold Induction with SFRP-1, Conc 20 μM, with SFRP-1, fold induction over SFRP-1 control, single dose
[4] = read-out: Fold Induction without SFRP-1, Conc 20 μM, without SFRP-1, single dose

fold induction at 15 µM [1] | fold induction at 15 µM [2] | Fold Induction with SFRP-1 (Conc 15 μM, with SFRP-1, fold induction over SFRP-1 control, single dose) [fold] | fold induction at 20 µM [3] | fold induction at 20 µM [4] | SMILES
2.4 | 0.9 | – | – | – | CCc1ccc(S(=O)(=O)c2ccccc2)cc1S(=O)(=O)NCCC(=O)OC [Example 222, methyl N-{[2-ethyl-5-(phenylsulfonyl)phenyl]sulfonyl}-beta-alaninate]
3.1 | 0.9 | – | – | – | CCc1ccc(S(=O)(=O)c2ccccc2)cc1S(=O)(=O)NCCc1c[nH]cn1 [Example 225, 2-ethyl-N-[2-(1H-imidazol-4-yl)ethyl]-5-(phenylsulfonyl)benzenesulfonamide]
2.6 | 0.8 | – | – | – | CCc1ccc(S(=O)(=O)c2ccccc2)cc1S(=O)(=O)NCCOC [Example 229, 2-ethyl-N-(2-methoxyethyl)-5-(phenylsulfonyl)benzenesulfonamide]
4.2 | 1.6 | – | – | – | CCc1ccc(S(=O)(=O)c2ccccc2)cc1S(=O)(=O)NCCCN1CCCC1 [Example 232, 2-ethyl-5-(phenylsulfonyl)-N-(3-pyrrolidin-1-ylpropyl)benzenesulfonamide]
1.5 | 1 | – | – | – | COC(=O)CCNS(=O)(=O)c1cc(S(=O)(=O)c2ccccc2)ccc1OC [Example 233, methyl N-{[2-methoxy-5-(phenylsulfonyl)phenyl]sulfonyl}-beta-alaninate]
1.2 | 1 | – | – | – | COc1ccc(S(=O)(=O)c2ccccc2)cc1S(=O)(=O)NCCc1ccccn1 [Example 234, 2-methoxy-5-(phenylsulfonyl)-N-(2-pyridin-2-ylethyl)benzenesulfonamide]
1.2 | 0.9 | – | – | – | COc1ccc(S(=O)(=O)c2ccccc2)cc1S(=O)(=O)NCCc1ccncc1 [Example 235, 2-methoxy-5-(phenylsulfonyl)-N-(2-pyridin-4-ylethyl)benzenesulfonamide]
1.2 | 1 | – | – | – | COc1ccc(S(=O)(=O)c2ccccc2)cc1S(=O)(=O)NCCc1c[nH]cn1 [Example 236, N-[2-(1H-imidazol-4-yl)ethyl]-2-methoxy-5-(phenylsulfonyl)benzenesulfonamide]
1.1 | 0.9 | 1.4 | – | – | COc1ccc(S(=O)(=O)c2ccccc2)cc1S(=O)(=O)NCCN1CCOCC1 [Example 237, 2-methoxy-N-(2-morpholin-4-ylethyl)-5-(phenylsulfonyl)benzenesulfonamide]
1.3 | 0.9 | – | – | – | COCCCNS(=O)(=O)c1cc(S(=O)(=O)c2ccccc2)ccc1OC [Example 238, 2-methoxy-N-(3-methoxypropyl)-5-(phenylsulfonyl)benzenesulfonamide]
1.2 | 1 | – | – | – | COc1ccc(S(=O)(=O)c2ccccc2)cc1S(=O)(=O)NCCCN(C)C [Example 239, N-[3-(dimethylamino)propyl]-2-methoxy-5-(phenylsulfonyl)benzenesulfonamide]
1.4 | 0.9 | – | – | – | COCCNS(=O)(=O)c1cc(S(=O)(=O)c2ccccc2)ccc1OC [Example 240, 2-methoxy-N-(2-methoxyethyl)-5-(phenylsulfonyl)benzenesulfonamide]
1.8 | 1.1 | – | – | – | CCN(CC)CCCNS(=O)(=O)c1cc(S(=O)(=O)c2ccccc2)ccc1OC [Example 241, N-[3-(diethylamino)propyl]-2-methoxy-5-(phenylsulfonyl)benzenesulfonamide]
2.3 | 1.2 | – | – | – | COc1ccc(S(=O)(=O)c2ccccc2)cc1S(=O)(=O)NCCCn1ccnc1 [Example 242, N-[3-(1H-imidazol-1-yl)propyl]-2-methoxy-5-(phenylsulfonyl)benzenesulfonamide]
2.4 | 1.9 | – | – | – | COc1ccc(S(=O)(=O)c2ccccc2)cc1S(=O)(=O)NCCCN1CCCC1 [Example 243, 2-methoxy-5-(phenylsulfonyl)-N-(3-pyrrolidin-1-ylpropyl)benzenesulfonamide]
1.3 | 1.1 | – | – | – | Cc1ccc(S(=O)(=O)c2ccccc2)cc1S(=O)(=O)NCCCc1ccccc1 [Example 244, 2-methyl-N-(3-phenylpropyl)-5-(phenylsulfonyl)benzenesulfonamide]
1.9 | 1.2 | – | – | – | CCc1ccc(S(=O)(=O)c2ccccc2)cc1S(=O)(=O)NCCCc1ccccc1 [Example 245, 2-ethyl-N-(3-phenylpropyl)-5-(phenylsulfonyl)benzenesulfonamide]

fold induction at 15 µM [1] | fold induction at 15 µM [2] | Fold Induction with SFRP-1 (Conc 15 μM, with SFRP-1, fold induction over SFRP-1 control, single dose) [fold] | fold induction at 20 µM [3] | fold induction at 20 µM [4] | SMILES
– | – | – | 2.2 | 0.8 | Cc1ccc(S(=O)(=O)c2ccccc2)cc1S(=O)(=O)NC1Cc2ccccc2C1 [Example 246, N-2,3-dihydro-1H-inden-2-yl-2-methyl-5-(phenylsulfonyl)benzenesulfonamide]
– | – | – | 1.7 | 0.9 | Cc1ccc(S(=O)(=O)c2ccccc2)cc1S(=O)(=O)N[C@H]1C[C@@H]1c1ccccc1 [Example 247, 2-methyl-N-[(1S,2R)-2-phenylcyclopropyl]-5-(phenylsulfonyl)benzenesulfonamide]
– | – | – | 2.8 | 0.9 | Cc1ccc(S(=O)(=O)c2ccccc2)cc1S(=O)(=O)NC[C@H](C)c1ccccc1 [Example 248, 2-methyl-N-[(2R)-2-phenylpropyl]-5-(phenylsulfonyl)benzenesulfonamide]
– | – | – | 1.9 | 0.8 | Cc1ccc(S(=O)(=O)c2ccc(F)cc2)cc1S(=O)(=O)NC1Cc2ccccc2C1 [Example 249, N-2,3-dihydro-1H-inden-2-yl-5-[(4-fluorophenyl)sulfonyl]-2-methylbenzenesulfonamide]
– | – | – | 1.4 | 0.9 | Cc1ccc(S(=O)(=O)c2ccc(F)cc2)cc1S(=O)(=O)N[C@H]1C[C@@H]1c1ccccc1 [Example 250, 5-[(4-fluorophenyl)sulfonyl]-2-methyl-N-[(1S,2R)-2-phenylcyclopropyl]benzenesulfonamide]
– | – | – | 3 | 0.8 | Cc1ccc(S(=O)(=O)c2ccc(F)cc2)cc1S(=O)(=O)NC[C@H](C)c1ccccc1 [Example 251, 5-[(4-fluorophenyl)sulfonyl]-2-methyl-N-[(2R)-2-phenylpropyl]benzenesulfonamide]
– | – | – | 2.6 | 1 | Cc1ccc(S(=O)(=O)c2ccc(C)c(S(=O)(=O)NC3Cc4ccccc4C3)c2)cc1 [Example 252, N-2,3-dihydro-1H-inden-2-yl-2-methyl-5-[(4-methylphenyl)sulfonyl]benzenesulfonamide]
– | – | – | 1.4 | 0.9 | Cc1ccc(S(=O)(=O)c2ccc(C)c(S(=O)(=O)N[C@H]3C[C@@H]3c3ccccc3)c2)cc1 [Example 253, 2-methyl-5-[(4-methylphenyl)sulfonyl]-N-[(1S,2R)-2-phenylcyclopropyl]benzenesulfonamide]
– | – | – | 3 | 1 | Cc1ccc(S(=O)(=O)c2ccc(C)c(S(=O)(=O)NC[C@H](C)c3ccccc3)c2)cc1 [Example 254, 2-methyl-5-[(4-methylphenyl)sulfonyl]-N-[(2R)-2-phenylpropyl]benzenesulfonamide]
– | – | – | 2.6 | 1.1 | Cc1ccc(S(=O)(=O)c2ccc(Cl)cc2)cc1S(=O)(=O)NC1Cc2ccccc2C1 [Example 255, 5-[(4-chlorophenyl)sulfonyl]-N-2,3-dihydro-1H-inden-2-yl-2-methylbenzenesulfonamide]
– | – | – | 1.2 | 1 | Cc1ccc(S(=O)(=O)c2ccc(Cl)cc2)cc1S(=O)(=O)N[C@H]1C[C@@H]1c1ccccc1 [Example 256, 5-[(4-chlorophenyl)sulfonyl]-2-methyl-N-[(1S,2R)-2-phenylcyclopropyl]benzenesulfonamide]
– | – | – | 2.4 | 1 | Cc1ccc(S(=O)(=O)c2ccc(Cl)cc2)cc1S(=O)(=O)NC[C@H](C)c1ccccc1 [Example 257, 5-[(4-chlorophenyl)sulfonyl]-2-methyl-N-[(2R)-2-phenylpropyl]benzenesulfonamide]
– | – | – | 1.2 | 1 | O=S(=O)(NC1Cc2ccccc2C1)c1cccc(S(=O)(=O)c2ccccc2)c1 [Example 258, N-2,3-dihydro-1H-inden-2-yl-3-(phenylsulfonyl)benzenesulfonamide]
– | – | – | 1 | 1.1 | O=S(=O)(N[C@H]1C[C@@H]1c1ccccc1)c1cccc(S(=O)(=O)c2ccccc2)c1 [Example 259, N-[(1S,2R)-2-phenylcyclopropyl]-3-(phenylsulfonyl)benzenesulfonamide]
– | – | – | 1.2 | 1 | C[C@@H](CNS(=O)(=O)c1cccc(S(=O)(=O)c2ccccc2)c1)c1ccccc1 [Example 260, N-[(2R)-2-phenylpropyl]-3-(phenylsulfonyl)benzenesulfonamide]
1.4 | 0.9 | – | – | – | Cc1ccc(S(=O)(=O)c2ccc(F)cc2)cc1S(=O)(=O)NC[C@@H](C)c1ccccc1 [Example 261, 5-[(4-fluorophenyl)sulfonyl]-2-methyl-N-[(2S)-2-phenylpropyl]benzenesulfonamide]

— US20060276464A1, “Diarylsulfone sulfonamides and use thereof” (Wyeth, priority 2005, published 2006)
